In patent publication US6858646B2, “Neuroprotective composition and uses thereof” (Universite du Quebec a Montreal, priority 1999, dated 2005):

Tests used:
P19 neurons [1] = format: cell-based; conditions: for Protection against oxidative stress caused by hydrogen peroxide: assayed at 0.5× suboptimal concentration, 0 to 10 mM H2O2, 30 min
Description: Culture and neuronal differentiation of P19 embryonal carcinoma cells were done according to the procedures of Jeannotte et al. (1997) with the following modifications for microscale adaptation of cultures to 96-well plates: cell aggregates obtained at day 4 of the treatment of P19 cells with retinoic acid were trypsinized with 0.025% trypsin-1 mM EDTA in PBS and subjected to mechanical passages to obtain individual cells which were seeded in gelatin-precoated microwells at a density of 0.7-1×10^5 cells per well. The newly seeded cells (neurons) were cultured in supplemented Neurobasal medium (Neurobasal® containing 0.5 mM L-glutamine and 0.5% B27 supplement) until exposure to oxidative conditions at day 7. Because this defined serum-free medium sustains growth of P19 neurons (Yao et al., 1995) but discourages the proliferation of fibroblasts, another cell derivative of the differentiation of P19 cells with retinoic acid (McBurney, 1993; Jeannotte et al., 1997), the cell populations in microwells were composed mostly of neurons (≦95%).
The prooxidant systems tested with P19 neurons were XA/XAO, H2O2, and H2O2/Fe^+2. Before neurons were exposed to either one of these systems, they were carefully washed with PBS and then incubated at 37° C., in an atmosphere of 95% ambient air and 5% CO2, and in the specific conditions of each system, as follows: i) from 0 to 90 min in the presence of PBS containing 500 μM XA and 50 mU/ml XAO, with the enzyme added last to start the reaction; ii) for 30 min in the presence of PBS containing 0 to 10 mM H2O2 with peroxide added last; and iii) for 30 min in the presence of PBS containing 0 to 10 mM H2O2 plus 50 μM FeCl2, with peroxide added last. Conditions were initially taken from Cini et al. (1994) for XA/XAO, from Desagher et al. (1996) for H2O2, and from Takemura et al. (1994) for H2O2/Fe^+2 systems respectively, and adapted to produce dose- or time-dependent cell mortality in P19 neurons. The first studies done with the H2O2/Fe^2+ system included the addition of 500 μM ascorbic acid; however, since responses of P19 neurons were similar whether or not ascorbic acid was present, this vitamin was omitted in subsequent experiments.
When TRIAD or its components were tested for their antioxidant action, they were administered to cells just prior the addition of XAO or H2O2. After incubation of cells under oxidative conditions, the prooxidant medium was removed and replaced with 200 μl of supplemented Neurobasal-minus AO (Neurobasal® containing L-glutamine and the B27-minus AO supplement). B27-minus AO is a version of B27 supplement sold by Gibco-BRL from which normally present antioxidants (AO=vitamin E, catalase, SOD and GSH) have been removed. Cells were incubated in this Neurobasal-minus AO medium for 16 h, at 37° C., 5% CO2, and for a further 7 h in the same medium but in the presence of Alamar Blue for viability measurement.
(§1) Fifteen (15) μl Alamar Blue was added to the culture medium of each well (200 μl) and incubation resumed for 7 h at 37° C., 5% CO2. A 180-μl aliquot of each culture medium was read by fluorescence using a wavelength of 544 nm for excitation and of 590 nm for emission; fluorescence increases upon reduction of the dye by metabolic activity of viable cells. Fluorescence determinations were done with a fluorimeter adapted to read microplates. Viability is reported as %, comparing the fluorescence units obtained for cells exposed to oxidative conditions to those of control (non-exposed) cells.

P19 neurons [2] = assay: Protection of P19 neurons exposed to XA/XAO mediated oxidative stress (Alamar Blue viability); format: cell-based; conditions: 1× concentration
Description: Culture and neuronal differentiation of P19 embryonal carcinoma cells were done according to the procedures of Jeannotte et al. (1997) with the following modifications for microscale adaptation of cultures to 96-well plates: cell aggregates obtained at day 4 of the treatment of P19 cells with retinoic acid were trypsinized with 0.025% trypsin-1 mM EDTA in PBS and subjected to mechanical passages to obtain individual cells which were seeded in gelatin-precoated microwells at a density of 0.7-1×10^5 cells per well. […]
Another protocol was also tested for XA/XAO system to generate a milder oxidative stress. […] At end of stress, PBS was changed for Neurobasal-minus AO medium and cells were incubated for 7 h, readily in the presence of Alamar Blue, for viability measurement.
as §1

[3] = In vitro antioxidant capacity: inhibition of DPD oxidation by H2O2, in absence of cells
Description: Oxidation of N,N-diethyl-p-phenylenediamine (DPD) by a prooxidant system was used as a general reporter of the amount of ROS generated by that system (Anonymous, 1985; Chahine et al., 1991). Antioxidant capacity of preparations of TRIAD (or of its components) was defined as the ability to inhibit the oxidation of DPD by prooxidants.
To estimate the antioxidant capacity of TRIAD preparations in the prooxidant conditions used with P19 neurons, DPD was added to a final concentration of 32 mM to 200 μl of each prooxidant system described above (see section 2.4) and incubated for the times tested with the cells. At the end of incubation, the amount of oxidized DPD was determined at 560 nm using a spectrophotometer adapted to microscale measurement.

OO [hydrogen peroxide, reference compound]
LD50 (P19 neurons [1]; mouse, 30 min): 0.3 mM | Cell mortality (P19 neurons [1]; mouse, 30 min, 1 mM): approximately 70%

CC(=O)C(=O)[O-].[Na+] [pyruvate, sodium pyruvate]
Protection against neuronal death caused by XA/XAO (P19 neurons [2]; 500 μM XA, 50 mU/mL XAO, 0-90 min): protected only slightly less than TRIAD 1× | Protective effect against XA/XAO (P19 neurons [2]; from 30 to 90 min of incubation with XA/XAO): remained stable | Inhibition of the oxidation of DPD by H2O2 [3]: substantial although not total antioxidant effect | Contribution to TRIAD protective effect (P19 neurons [1]; H2O2/Fe2+ prooxidant system): contributed for most of TRIAD protective effect | Protection against oxidative stress caused by hydrogen peroxide (P19 neurons [1]): substantial and stable protection up to 10 mM H2O2 | Share of the protective effect of TRIAD (P19 neurons [1]; at low hydrogen peroxide concentrations): half | Contribution to the neuroprotective action of TRIAD against H2O2-induced injury (P19 neurons [1]; cultured neurons): 60%

Cc1c(C)c2c(c(C)c1O)CC[C@@](C)(CCC[C@H](C)CCC[C@H](C)CCCC(C)C)O2 [vitamin E, α-tocopherol]
Protection against oxidative stress caused by hydrogen peroxide (P19 neurons [1]): did not provide protection
